The values below come from patent publication US10221198B2, “Preparation and medical use of triazenes” (Ecole Polytechnique Federale De Lausanne (EPFL), priority 2014, dated 2019).

Molecules are shown by their SMILES.

Common to all, as to type: cell-based
Test [1] has as its system human ovarian cancer cells (A2780). Description: Cytotoxicity test (MTT assay) on A2780 cells. Particulars: 72 h exposure. Here is the method: (§1) MDA-MB-231 breast adenocarcinoma cells (ATCC® HTB-26™), MCF-10a human mammary epithelial cells (ATCC® CRL-10317™) and HEK293 human embryonic kidney cells (ATCC® CRL-1573™) were obtained from ATCC (Middlesex, UK), the A2780 human ovarian carcinoma cell line was obtained from the European Collection of Cell Cultures (catalogue number 93112519, Salisbury, U.K.). All cell culture media were purchased from Life Technologies (Zug, Switzerland). A2780 cells were cultured in RPMI-1640 medium (Gibco, GlutaMax), while MDA-MB-231 and HEK293 cells were cultured in Dulbecco's Modified Eagle Medium (DMEM, Gibco, GlutaMax) supplemented with 10% fetal bovine serum (FBS, Sigma-Aldrich, Buchs, Switzerland) and 1% penicillin/streptomycin (Life Technologies, Zug, Switzerland). MCF-10A were cultured in DMEM/F12 medium containing 10% horse serum and 1% antibiotics, supplemented with 10 μg/mL insulin, 20 μg/mL hydrocortisone, 20 ng/mL epidermal growth factor and 100 ng/mL cholera toxin (all from Sigma Aldrich, Buchs, Switzerland). Cells were incubated in a CO2 incubator with 5% CO2 and 100% relative humidity at 37° C. MTT (MTT=3-(4,5-dimethyl-2-thiazolyl)-2,5-diphenyl-2H-tetrazolium bromide) was purchased from Calbiochem (Zug, Switzerland). Cell viability was determined by the MTT assay. The absorption was read using a SpectraMax M52 microplate reader (Molecular Devices, Sunnyvale, Calif., USA).
(§2) Cells were seeded in 96-well plates as monolayers with 100 μL of cell suspension (approximately 5000 cells) per well and preincubated for 24 h in medium supplemented with 10% FBS. With the exception of dacarbazine, all compounds were dissolved in DMSO. In the case of dacarbazine, an aqueous stock solution of the monocitrate was prepared in situ and immediately used (light sensitivity). The stock solutions were serially diluted in the culture medium to the appropriate concentration, to give a final DMSO concentration of no higher than 0.5%. 100 μL of the compound solution was added to each well, and the plates were incubated for 72 h. Subsequently, MTT (5 mg/mL solution) was added to the cells and the plates were incubated for a further 2 h. The culture medium was aspirated and the purple formazan crystals formed by the mitochondrial dehydrogenase activity of vital cells were dissolved in DMSO. The optical density, directly proportional to the number of surviving cells, was quantified at 590 nm using a multiwell plate reader, and the fraction of surviving cells was calculated from the absorbance of untreated control cells. Evaluation is based on means from at least two independent experiments, each comprising triplicates per concentration level.
On the technique in general: Tetrazolium assays rely on reduction of a dye to a coloured formazan, in cell work by metabolically active cells.

Test [2] relates to non-cancer human embryonic kidney cells (HEK293). As to the kind of experiment: Cytotoxicity test (MTT assay) on HEK293 cells. The conditions noted are these: 72 h exposure. As for the experimental part:
as §1, §2

Test [3] relates to human invasive breast cancer cells (MDA-MB-231). Description: Cytotoxicity test (MTT assay) on MDA-MB-231 cells. Particulars: for IC50: MDA-MB-231, 72 h exposure, MTT assay, human invasive breast cancer cells; for SC, selectivity coefficient, IC50 MCF-10A/IC50 MDA-MB-231: ratio of 72 h IC50 values, MCF-10A over MDA-MB-231. As for the experimental part:
as §1, §2

The subject of test [4] is human mammary epithelial cells (MCF-10A). As to the kind of experiment: Cytotoxicity test (MTT assay) on MCF-10A cells. The conditions noted are these: 72 h exposure. As for the experimental part: as §1, §2

As for `CN(C)N=NC#CC(C)(C)C` [Compound 5, 1-(3,3-Dimethylbut-1-ynyl)-3,3-dimethyltriaz-1-ene], the IC50 (usually the concentration at which inhibition is half-maximal) in test [1] amounted to 22 ± 3 µM; in test [2] it was 19 ± 2 µM; in test [3] it was 38 ± 3 µM; in test [4], 52 ± 11 µM. For the same compound, the “SC, selectivity coefficient, IC50 MCF-10A/IC50 MDA-MB-231” value (from here on “SC, selectivity coefficient”) in test [3] stood at 1.4.

In the case of `CN(C)CC#CN=NN(C)C` [Compound 15, 3-(3,3-Dimethyltriaz-1-enyl)-N,N-dimethylprop-2-yn-1-amine], the IC50 in test [1] was found to be 47 ± 3 µM; in test [2], 15 ± 4 µM; in test [3], 45 ± 15 µM; in test [4], 113 ± 7 µM. Further, the “SC, selectivity coefficient” value in test [3] is 2.4.

Take `CC(C)N(N=NC#CC(C)(C)C)C(C)C` [Compound 2, 1-(3,3-Dimethylbut-1-ynyl)-3,3-diisopropyltriaz-1-ene]: the 50% inhibitory concentration (IC50) came out at 160 ± 40 µM in test [1], 125 ± 5 µM in test [2], 176 ± 60 µM in test [3] and 299 ± 43 µM in test [4]. In test [3], the “SC, selectivity coefficient” value is 1.7.

For `COCC#CN=NN(C)C` [Compound 14, 1-(3-Methoxyprop-1-ynyl)-3,3-dimethyltriaz-1-ene], the IC50 came to 43 ± 6 µM in test [1], 24 ± 4 µM in test [2], 72 ± 9 µM in test [3] and 177 ± 23 µM in test [4]. In test [3], the “SC, selectivity coefficient” value is 2.5.

As to `CC(C)N(N=NC#Cc1ccccc1)C(C)C` [Compound 1, 3,3-Diisopropyl-1-(phenylethynyl)triaz-1-ene], the IC50 was 56 ± 4 µM in test [1], 44 ± 11 µM in test [2], more than 500 µM in test [3] and 116 ± 2 µM in test [4].

On to `CC(C)N(C)N=NC#CCN(C)C` [Compound 10, 3-(3-Isopropyl-3-methyltriaz-1-enyl)-N,N-dimethylprop-2-yn-1-amine], for which the IC50 in test [1] was found to be 34 ± 4 µM; in test [2], 21 ± 5 µM; in test [3], 14 ± 2 µM; in test [4], 86 ± 4 µM. Besides, the “SC, selectivity coefficient” value in test [3] is 6.1.

As to `CC(C)N(C)N=NC#CC(C)(C)C` [Compound 4, 1-(3,3-Dimethylbut-1-ynyl)-3-isopropyl-3-methyltriaz-1-ene], the IC50 came out at 32 ± 4 µM in test [1], 29 ± 4 µM in test [2], 70 ± 10 µM in test [3] and 192 ± 12 µM in test [4]. In addition, the “SC, selectivity coefficient” value in test [3] is 2.7.

With `COCC#CN=NN(C)C(C)C` [Compound 9, 3-Isopropyl-1-(3-methoxyprop-1-ynyl)-3-methyltriaz-1-ene], the IC50 in test [1] was determined as 20 ± 3 µM; in test [2], 14 ± 1 µM; in test [3], 32 ± 4 µM; in test [4], 208 ± 49 µM. Also, in test [3], the “SC, selectivity coefficient” value came out at 6.5.

As for `CCCCC#CN=NN(C(C)C)C(C)C` [Compound 6, 1-(Hex-1-ynyl)-3,3-diisopropyltriaz-1-ene], the IC50 in test [1] is 143 ± 29 µM; in test [2], 165 ± 65 µM; in test [3] it was 199 ± 21 µM; in test [4], 254 ± 52 µM. Further, the “SC, selectivity coefficient” value in test [3] stood at 1.2.
